Test results as given in US4687773A, “(+)-N-N-propylnorapomorphine and selective limbic activity” (priority 1985, dated 1987).
Where a name gives a salt, the structure may show the parent alone.

Biological target: Dopamine Receptors
Format: binding, calf
Details: ligand [3H]APO (0.5 nM)

Structure (SMILES): CCCN1CCc2cccc3c2[C@@H]1Cc1ccc(O)c(O)c1-3 [(+)NPA, (S)-N-n-Propylnorapomorphine Hydrochloride]
- IC50: 66 nM
